Measurements published in publication PMC4608580, “Synthesis and Evaluation of Biological Activity of Antimicrobial – Pro-Proliferative Peptide Conjugates” (PLoS ONE, 2015).
Converted amounts (≈) assume the structure as drawn. Residues, ends and D or L forms follow the SMILES beside them.

What was measured:
[1] = Circular dichroism, alpha-helical content; assay type: physicochemical; conditions: CD, mean residue ellipticity at 222 nm (Eq 1), peptide 0.4 mg/ml in 30 mM SDS, room temperature
Method: Circullar dichroism spectra of analyzed compounds were recorded on a Jasco J-815 spectropolarimeter using a quartz cell of 1 mm path length between 195–260 nm at room temperature. Peptides at concentration of 0.4 mg/ml were dissolved in water or 30 mM SDS solution. SDS micelle system was used as the simplified model of negatively charged lipid membrane. On the basis of the obtained results the alpha-helical content was determined from the mean residue ellipticities at 222 nm according to Eq 1: %Helix=([θ]obs/([θ]helixx(1−2.57/l))x100, (1) where [θ] obs is the experimentally observed mean-residue ellipticity at 222 nm, [θ]helix is the theoretical ellipticity of peptide of infinite length with a 100% helix population, taken as -39 500 deg·cm^2/dmol, and l is the number of peptide bonds.
Circular dichroism method was applied to obtain a basic information about the secondary structure of the synthesized compounds (with the exception of CAR, CAR3, DAL, CTEN2) in two chemical environments, water and 30 mM SDS. As expected, all the tested compounds in water adopted a random-coil structure, while in the presence of 30 mM SDS most of them formed α-helices with characteristic negative minima around 208 and 220 nm. […] The examples of CD spectra for selected peptides could be seen in supporting information (Figure A in S1 File). On the basis of the experimentally obtained values of the mean residue ellipticities of peptides at 222 nm their alpha-helical content was calculated according to the Eq 1 (Table 1).

[2] = system: Escherichia coli (PCM 2057); assay type: cell-based; conditions: PCM 2057, 24 h
Text: (§1) Escherichia coli (PCM 2057), Staphylococcus aureus (PCM 2054), Staphylococcus epidermidis (PCM 2118), Pseudomonas aeruginosa (PCM 499) were obtained from Polish Collection of Microorganisms. Fungi strains Candida albicans (CCM 8186), Candida glabrata (CCM 8270), Candida parapsilosis (CCM 8260), Candida krusei (CCM 8271), Candida tropicalis (CCM 8264) were acquired from Czech Collection of Microorganisms.
(§2) Luria-Bertani broth (LB) and Sabouraud Dextrose broth (SB) (Biocorp, Poland) were used for cultivation of bacteria and fungi strains, respectively. Antimicrobial activity of peptides was analyzed through determination of MIC (minimal inhibitory concentration) parameter according to the standard microdilution technique performed on 96-well plates. Mueller-Hinton broth (MHB) was used as the working medium for all bacterial strains, while in case of fungi it was additionally supplemented with 2% glucose.
(§3) Briefly, inoculum was prepared from freshly grown cultures of microorganisms being at their exponential phase of growth. Each well of 96-well plates containing 100 μL of serially diluted peptides in PBS (phosphate buffer saline) at concentration ranging from 2 to 250 μg/mL were inoculated with 100 μL of approximately 10^5 CFU/mL of bacterial suspension or about 2.5 x 10^3 CFU/mL of fungi suspended in a double concentrated Mueller-Hinton broth (supplemented with 2% glucose for Candida spps.). Then plates were incubated overnight at 37°C and absorbance was read at 590 nm after 24 h. Cultures without peptide were treated as positive control, while uninoculated Mueller-Hinton broth was defined as negative control. All measurements were run at least in triplicate.
(§4) All peptides were screened against the wide range of microorganisms, including Gram-negative, Gram-positive bacteria and fungi from Candida species (Table 2). Broth microdilution method for MIC determination was used as a standard procedure. All assays were performed on liquid Mueller-Hinton broth, which was additionally supplemented with 2% glucose when fungicidal activity towards Candida spps. was analyzed.

[3] = system: Staphylococcus epidermidis (PCM 2118); assay type: cell-based; conditions: PCM 2118, 24 h
Text: as §1, §2, §3, §4

[4] = system: Pseudomonas aeruginosa (PCM 499); assay type: cell-based; conditions: PCM 499, 24 h
Text: as §1, §2, §3, §4

[5] = system: Staphylococcus aureus (PCM 2054); assay type: cell-based; conditions: PCM 2054, 24 h
Text: as §1, §2, §3, §4

B. cereus = assay type: cell-based; conditions: 24 h
Method: as §2, §3, §4

[6] = system: human primary dermal fibroblasts; assay: Cell proliferation assay (MTT); assay type: cell-based; conditions: 72 h, serum-free DMEM
Method: Biopsies of healthy human skin were obtained aseptically from three donors (47–69 years old) undergoing circumcision after obtaining their written informed consent. All the procedures were approved by the Ethics Committee of Medical University of Gdansk (NKEBN/483/2011. Issued: 2011-12-19). The samples were washed several times with sterile PBS (Sigma-Aldrich, Germany) containing antibiotic (200 U/mL penicillin and 200 μg/mL streptomycin), after which, the subcutaneous tissue was cut off with a sharp blade. The resulting sheets were cut into small fragments, washed two times with sterile PBS and treated with 6 U/mL dispase II (BD, USA) overnight at 4°C to separate epidermis and dermis. The dermis was then digested with 1.0 mg/mL collagenase type I (from Clostridium histolyticum Sigma-Aldrich, Germany) for 2 hours at 37°C to isolate fibroblasts. Cells were used between the 2nd and 4th passage in all experiments.
(§5) In our study two kind of cells were used: immortalized human HaCaT keratinocytes (DKFZ Heidelberg, Germany) and primary dermal fibroblasts obtained from 3 healthy donors. Both types of the used cell lines were grown in Dulbecco's modified Eagle's medium (DMEM) (Sigma–Aldrich, Germany), that contained […] of glucose, […] of L-glutamine, sodium pyruvate and sodium bicarbonate. Additionally, medium was supplemented with 10% of FCS (fetal calf serum, Sigma-Aldrich, Germany), 100 U/mL of penicillin and 100 μg/mL streptomycin (Sigma-Aldrich, Germany). The cells were grown in culture dishes (BD, USA) under standard conditions in a humidified atmosphere with 5% CO2 at 37°C and medium was changed every 2 days.
The fibroblasts and keratinocytes were seeded at density of 4500 and 6000 cells per well, respectively, into 96-well plates suspended in a medium supplemented with 10% of FCS. After 24 h the media were exchanged with serum- and antibiotic- free DMEM and tested peptides dissolved in PBS were added yielding final concentration ranging from 1 to 50 μg/mL. Cells were incubated for the next 24 hours, when the medium was exchanged again and fresh portion of peptides (used at the same concentrations as previously) was added. Incubation was continued for the next 48 hours (the overall time of cell exposition to peptide was 72 h). […] After 15 min when the purple crystals of formazan were fully solubilized, absorbance was read at 570 nm with a plate reader. […]
Fig 1 Pro-proliferative activity of the tested peptides towards human keratinocytes (A) and fibroblasts (B). […] The data represents results of MTT assay expressed as the percentage of the cell viability in comparison to their control sample (cells incubated in serum-free DMEM without tested peptides), additional positive control corresponds to the cells incubated in the presence of 10% FCS. […]

[7] = system: immortalized human HaCaT keratinocytes; assay: Cell proliferation assay (MTT); assay type: cell-based; conditions: 72 h, serum-free DMEM; for Effect on HaCaT cell viability/proliferation (MTT), in words: whole range 1–50 μg/mL, vs. control without peptide, triplicate
Method: as §5
The fibroblasts and keratinocytes were seeded at density of 4500 and 6000 cells per well, respectively, into 96-well plates suspended in a medium supplemented with 10% of FCS. After 24 h the media were exchanged with serum- and antibiotic- free DMEM and tested peptides dissolved in PBS were added yielding final concentration ranging from 1 to 50 μg/mL. Cells were incubated for the next 24 hours, when the medium was exchanged again and fresh portion of peptides (used at the same concentrations as previously) was added. Incubation was continued for the next 48 hours (the overall time of cell exposition to peptide was 72 h). At the end of the experiment cells were treated with 20 μL of MTT (5 mg/mL in PBS). After 3 h at 37°C under 5% CO2 medium was discarded and replaced by 6mM HCl in isopropanol. After 15 min when the purple crystals of formazan were fully solubilized, absorbance was read at 570 nm with a plate reader. The optical density reflects the level of cell viability as MTT is converted in purple formazan product only in the presence of viable mitochondria of the living cells.
Fig 1 Pro-proliferative activity of the tested peptides towards human keratinocytes (A) and fibroblasts (B). Cells were incubated for 72 hours in serum-free DMEM medium in the presence of peptides applied at concentrations of 1,10, 25 and 50 μg/mL, respectively. The data represents results of MTT assay expressed as the percentage of the cell viability in comparison to their control sample (cells incubated in serum-free DMEM without tested peptides), additional positive control corresponds to the cells incubated in the presence of 10% FCS. All experiments were performed independently in triplicate. *P < 0.05, **P < 0.01, ***P < 0.001 vs. control.
In order to evaluate a long-term effect of peptides, experiments were carried out for 72 hours. Before addition of the tested compounds, the cell medium was exchanged for the fresh one not containing any serum or antibiotic.

HaCaT keratinocytes = assay: Cell migration assay (in vitro scratch test); assay type: cell-based, human; conditions: 25 μg/mL, 24 h, serum-free DMEM, Mitomycin C 5 μg/mL, vs. control without peptide, three independent experiments
Method: Fibroblasts and keratinocytes were seeded (5x10^5 cells/well) in 6-well plates. When desired monolayer confluence was reached, cells were starved for 24 hours in serum-free DMEM. The monolayer was scratched then with 200μL-pipette tip. The floating cells and cell debris were removed by double washing in PBS, further replaced with a fresh serum-free medium. Wounded monolayers were incubated for the next 24 h in the presence of tested peptides used at concentration of 25 μg/mL and 5 μg/mL of Mitomycin C (Sigma Aldrich) to prevent proliferation. At the end of the experiment medium was removed and the cells were fixed with 3.7% PFA for 5 min, stained for the next 30 min with 0.05% crystal violet solution, washed several times with distilled water and the plates were left inverted for a couple of minutes to drain. The wounded areas were then photographed by means of Zeiss Observer D1 microscope equipped with camera AxioCam and analyzed with AxioVision software (Carl Zeiss, Germany). Migration activity of the cells treated with the tested peptides were expressed as the percentage of the wounded area with respect to the control probe (cell cultures without any of the peptide), assumed as 100%.
An in vitro scratch test was performed to investigate the effect of the analyzed compounds on keratinocytes and fibroblasts migration. Evaluation was based on the efficiency of the invasion of the monolayer cells to the prewounded area within 24 h after stimulation with the appropriate compound added at concetration of 25μg/mL.
Fig 2 Effect of the peptides on HaCaT keratinocytes and fibroblasts cell migration in the in vitro scratch test. HaCaT cells and fibroblasts were grown in 6-well plates until the 100% confluence was reached, then cells were starved for the next 12 hours in DMEM without 10% FCS and scratched once vertically with a 200μL pipette tip. After being washed two times with sterile PBS, a fresh portion of DMEM medium was added and cells were treated with the tested peptides applied at their optimal doses (25 μg/mL). Migration was analyzed after 24 hours by means of Zeiss Observer D1 microscope, wounding areas were analyzed with AxioVision software and expressed as the percentage of the wound width in comparison to the control sample (cells incubated in DMEM without FCS). Control+ FCS corresponds to the sample with cells incubated in the medium containing 10% FCS and was treated as the additional positive control. Data represent the mean ± SD of three independent experiments. *P < 0.05, **P < 0.01, ***P < 0.001 vs. control.

Compound	α-helicity [1] [%]	MIC E.coli [2] [µg/mL]	MIC S. epidermidis [3] [µg/mL]	MIC P. aeruginosa [4] [µg/mL]	MIC S.aureus [5] [µg/mL]	MIC B. cereus (B. cereus) [µg/mL]	Effect on fibroblast cell count (MTT), in words ([6]; dose-response relationship, peptide at 50 μg/mL)	Effect on HaCaT proliferation (MTT), in words ([7]; peptide at 1–25 μg/mL)	Effect on fibroblast cell count (MTT), in words ([6]; peptide at 1–25 μg/mL)	Effect on HaCaT cell viability/proliferation (MTT), in words [7]	Effect on keratinocyte migration (scratch test), in words (HaCaT keratinocytes)
CC(C)C[C@H](NC(=O)CNC(=O)[C@@H](N)CCC(=O)O)C(=O)N[C@@H](CCC(=O)O)C(=O)N1CCC[C@H]1C(=O)NCC(=O)NCCOCCOCC(=O)N[C@@H](CCCCN)C(=O)N[C@@H](CCCCN)C(=O)N[C@H](C(=O)N[C@H](C(=O)N[C@@H](Cc1ccccc1)C(=O)N[C@@H](Cc1c[nH]c2ccccc12)C(=O)N[C@H](C(=O)N[C@@H](CCCCN)C(=O)N[C@@H](Cc1ccccc1)C(=O)N[C@@H](CCCCN)C(N)=O)C(C)C)C(C)C)C(C)C [CTEN2-PEG-KSLW] (HELM PEPTIDE1{E.G.L.E.P.G.[O=C(COCCOCCN[*:1])[*:2]].K.K.V.V.F.W.V.K.F.K.[am]}$$$$V2.0; N-terminus assumed)	27	>125	7.8 (≈ 3.83 µM)	>125	>125	>125	highest cell count	noticeable pro-proliferatory activity			
EGLEPG [CTEN2]									Increased cell count	non-toxic	
carnosine [reference compound]										non-toxic	best results
